Key:
Assay type in all cases: in vivo
Ctenocephalides felis [1] = test: Ctenocephalides felis in vitro contact test with adult cat fleas; conditions: application rate 5 μg/cm^2 (=500 g/ha); after 48 h
Protocol: Ctenocephalides felis—In Vitro Contact Tests with Adult Cat Fleas
(§1) For the coating of the test tubes, 9 mg of active compound are first dissolved in 1 ml of acetone p.a. and then diluted to the desired concentration with acetone p.a. 250 μl of the solution are distributed homogeneously on the inner walls and the base of a 25 ml glass tube by turning and rocking on an orbital shaker (rocking rotation at 30 rpm for 2 h). With 900 ppm of active compound solution and internal surface area 44.7 cm^2, given homogeneous distribution, an area-based dose of 5 μg/cm^2 is achieved.
After the solvent has evaporated off, the tubes are populated with 5-10 adult cat fleas (Ctenocephalides felis), sealed with a perforated plastic lid and incubated in a horizontal position at room temperature and ambient humidity. After 48 h, efficacy is determined. To this end, the tubes are stood upright and the fleas are knocked to the base of the tube. Fleas which remain motionless at the base or move in an uncoordinated manner are considered to be dead or moribund.
100% efficacy means that all the fleas were dead or moribund. 0% efficacy means that no fleas were harmed.

Rhipicephalus sanguineus = Rhipicephalus sanguineus in vitro contact test with adult brown dog ticks; conditions: application rate 5 μg/cm^2 (=500 g/ha); after 48 h
Protocol: Rhipicephalus sanguineus—In Vitro Contact Tests with Adult Brown Dog Ticks
as §1
After the solvent has evaporated off, the tubes are populated with 5-10 adult dog ticks (Rhipicephalus sanguineus), sealed with a perforated plastic lid and incubated in a horizontal position in the dark at room temperature and ambient humidity. After 48 h, efficacy is determined. To this end, the ticks are knocked to the base of the tube and incubated on a hotplate at 45-50° C. for not more than 5 min. Ticks which remain motionless on the base or move in such an uncoordinated manner that they are unable to deliberately avoid the heat by climbing upwards are considered to be dead or moribund.
An efficacy of 100% means that all the ticks were dead or moribund. 0% efficacy means that none of the ticks were harmed.

Boophilus microplus = Boophilus microplus injection test; conditions: for pest or weed control at 0.02 mg: Rhipicephalus microplus, 168 h, read-out: efficacy (laying of fertile eggs), application rate 20 μg/animal, after 7 days; for efficacy (laying of fertile eggs): application rate 20 μg/animal, after 7 days
Outline: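 Compound dissolved in DMSO; 1 μl injected into the abdomen of engorged adult female ticks, five per group, kept in climate-controlled room. Efficacy scored after 7 days from fertile egg laying (100% = no fertile eggs; 0% = all fertile), with unclear eggs held ~42 days until hatching.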

Ctenocephalides felis [2] = test: Ctenocephalides felis oral test; conditions: application rate 100 ppm in citrated cattle blood; after 2 days
Protocol: Ctenocephalides felis—Oral Test
(§2) Solvent: dimethyl sulfoxide
To produce a suitable active compound formulation, 10 mg of active compound are mixed with 0.5 ml of dimethyl sulfoxide. Dilution with citrated cattle blood gives the desired concentration.
About 20 unfed adult cat fleas (Ctenocephalides felis) are placed into a chamber which is closed at the top and bottom with gauze. A metal cylinder whose bottom end is closed with parafilm is placed onto the chamber. The cylinder contains the blood/active compound formulation, which can be imbibed by the fleas through the parafilm membrane.
After 2 days, the kill in % is determined. 100% means that all of the fleas have been killed; 0% means that none of the fleas have been killed.

Lucilia cuprina = Lucilia cuprina test; conditions: application rate 100 ppm; L1 larvae; after 2 days
Outline: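 About 20 first-instar larvae were placed in vessels of minced horsemeat with compound at the desired concentration. Compound was dissolved in DMSO and diluted in water. Percent kill scored after 2 days.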

Phaedon cochleariae = Phaedon cochleariae spray test; conditions: for pest or weed control at 500 g/ha: Phaedon cochleariae, 168 h, read-out: efficacy; for efficacy: application rate 500 g/ha, after 7 days
Outline: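 Chinese cabbage leaf discs sprayed with compound formulated in acetone/DMF and water with 1000 ppm emulsifier, then infested with mustard beetle larvae once dry. Percent larval kill scored after 7 days (100% = all dead, 0% = none).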

Spodoptera frugiperda = Spodoptera frugiperda spray test; conditions: for pest or weed control at 500 g/ha: Spodoptera frugiperda, 168 h, read-out: efficacy; for efficacy: application rate 500 g/ha, after 7 days
Outline: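 Maize leaf discs sprayed with compound formulated in acetone/dimethylformamide and diluted in water with 1000 ppm alkylaryl polyglycol ether emulsifier. Once dry, discs are infested with fall armyworm caterpillars. Efficacy in % read after 7 days: 100% all caterpillars killed, 0% none killed.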

Tetranychus urticae = Tetranychus urticae spray test, OP-resistant; conditions: application rate 500 g/ha; after 6 days
Protocol: Tetranychus urticae—Spray Test, OP-Resistant
Solvent: 78.0 Parts by Weight of Acetone • • 1.5 parts by weight of dimethylformamide
(§3) Emulsifier: alkylaryl polyglycol ether
(§4) To produce a suitable active compound formulation, 1 part by weight of active compound is dissolved with the specified parts by weight of solvent and made up to the desired concentration with water containing an emulsifier concentration of 1000 ppm. To produce further test concentrations, the formulation is diluted with emulsifier-containing water.
Discs of bean leaves (Phaseolus vulgaris) infested with all stages of the greenhouse red spider mite (Tetranychus urticae) are sprayed with an active compound formulation of the desired concentration.
After 6 days, the efficacy in % is determined. 100% means that all the spider mites have been killed; 0% means that no spider mites have been killed.

[3] = tested on: Anopheles gambiae strain RSPH (homozygot kdr); test: Anopheles test (ANPHGB surface treatment); conditions: read-out: efficacy (mortality in %)
Protocol: Anopheles Test (ANPHGB Surface Treatment)
(§5) Solvent: acetone+2000 ppm rapeseed oil methyl ester (RME)
(§6) To produce an appropriate active compound formulation, the active compound is dissolved in the solvent (2 mg/ml). The active compound formulation is pipetted onto a glazed tile and, after it has dried off, adult mosquitoes of the species Anopheles gambiae strain RSPH (homozygot kdr) are placed onto the treated tile. The exposure time is 30 minutes.
(§7) 24 hours after contact with the treated surface, mortality in % is determined. 100% means that all mosquitoes have been killed; 0% means that none of the mosquitoes have been killed.

[4] = tested on: Anopheles funestus strain FUMOZ-R; test: Anopheles test (ANPHFU surface treatment); conditions: read-out: efficacy (mortality in %)
Protocol: Anopheles Test (ANPHFU Surface Treatment)
as §5
as §6, with “funestus” for “gambiae”, “FUMOZ-R (Hunt et al., Med Vet Entomol. 2005 Sep.; 19 (3):271-5)” for “RSPH (homozygot kdr)”
as §7

[5] = tested on: Aedes aegypti strain MONHEIM; test: Aedes test (AEDSAE surface treatment); conditions: read-out: efficacy (mortality in %)
Protocol: Aedes Test (AEDSAE Surface Treatment)
as §5
as §6, with “Aedes aegypti” for “Anopheles gambiae”, “MONHEIM” for “RSPH (homozygot kdr)”, “minutes. 24 hours after contact with the treated surface, mortality in % is determined. 100% means that all mosquitoes have been killed; 0% means that none of the mosquitoes have been killed.” for “minutes.”

Myzus persicae = Myzus persicae spray test; conditions: after 5 days
Protocol: Myzus persicae—Spray Test
Solvent: 78 parts by weight of acetone • • 1.5 parts by weight of dimethylformamide
as §3, §4
Discs of Chinese cabbage leaves (Brassica pekinensis) infested by all stages of the green peach aphid (Myzus persicae) are sprayed with an active compound formulation of the desired concentration.
After 5 days, the efficacy in % is determined. 100% means that all the aphids have been killed; 0% means that no aphids have been killed.

[6] = tested on: cattle ticks (Boophilus microplus) Parkhurst strain, SP-resistant; test: Boophilus microplus dip test; conditions: application rate 100 ppm, after 7 days
Protocol: Boophilus microplus—Dip Test
Test animals: cattle ticks (Boophilus microplus) Parkhurst strain, SP-resistant
as §2
10 mg of active compound are dissolved in 0.5 ml of dimethyl sulfoxide. To produce a suitable formulation, the active compound solution is diluted with water to the concentration desired in each case.
This active compound formulation is pipetted into tubes. 8-10 engorged adult female cattle ticks (Boophilus microplus) are transferred into a further tube with holes. The tube is immersed into the active compound formulation, and all the ticks are completely wetted. After the liquid has run out, the ticks are transferred on filter disks into plastic dishes and stored in a climate-controlled room.
Efficacy is assessed after 7 days by laying of fertile eggs. Eggs which are not visibly fertile are stored in a climate-controlled cabinet until the larvae hatch after about 42 days. An efficacy of 100% means that none of the ticks has laid any fertile eggs; 0% means that all the eggs are fertile.

SMILES | efficacy (fleas dead or moribund) (Ctenocephalides felis [1]) [%] | efficacy (ticks dead or moribund) (Rhipicephalus sanguineus) [%] | pest or weed control at 0.02 mg (Boophilus microplus) [%] | efficacy (kill in %) (Ctenocephalides felis [2]) [%] | efficacy (kill in %) (Lucilia cuprina) [%] | pest or weed control at 500 g/ha (Phaedon cochleariae) [%] | pest or weed control at 500 g/ha (Spodoptera frugiperda) [%] | efficacy (Tetranychus urticae) [%] | mortality at 20 mg/m2 [3] [%] | mortality at 100 mg/m2 [3] [%] | mortality at 20 mg/m2 [4] [%] | mortality at 100 mg/m2 [4] [%] | mortality at 20 mg/m2 [5] [%] | mortality at 100 mg/m2 [5] [%] | efficacy (Myzus persicae; application rate 500 g/ha) [%] | efficacy (Phaedon cochleariae) [%] | efficacy (Spodoptera frugiperda) [%] | efficacy (laying of fertile eggs) [6] [%] | efficacy (laying of fertile eggs) (Boophilus microplus) [%] | efficacy (Myzus persicae; application rate 100 g/ha) [%]
CON(C)CCOc1ccc(COc2ccc(Cl)c3ccccc23)cn1 [Example 2, 2-[(5-{[(4-chloro-1-naphthyl)oxy]methyl}pyridin-2-yl)oxy]-N-methoxy-N-methylethanamine] | 100 | 100 | 100 | 80 | 100 | 100 | 100 | 90 | 80 to 100 | 80 to 100 | 80 to 100 | 80 to 100 | 80 to 100 | 80 to 100 | – | – | – | – | – | –
CON(C)CCOc1ccc(COc2ccc(F)c(-c3cccc(OC(F)(F)F)c3)c2)cn1 [Example 10] | – | – | – | – | – | – | – | 100 | – | – | – | – | – | – | 90 | 100 | 100 | – | – | –
CON(C)CCOc1ccc(COc2cccc3c(Cl)c(Cl)ccc23)nc1 [Example 16] | 100 | 100 | – | – | 100 | – | – | – | – | – | – | – | – | – | – | 83 | 83 | 95 | 100 | –
CON(C)CCOc1cnc(COc2ccc(Cl)c3ccccc23)c(F)c1 [Example 19] | 100 | 100 | – | 80 | 98 | – | – | – | – | – | – | – | – | – | – | 100 | 100 | 100 | 100 | –
CON(C)CCOc1cnc(COc2ccc3sc4ccccc4c3c2)c(F)c1 [Example 23] | 100 | 100 | – | – | 100 | – | – | 90 | – | – | – | – | – | – | – | 100 | 100 | 80 | 100 | –
CC(C)N(CCOc1cnc(COc2cccc3c(Cl)c(Cl)ccc23)c(F)c1)C(C)C [Example 39] | 100 | – | – | – | – | – | – | – | – | – | – | – | – | – | – | 100 | 100 | – | 90 | 90
CON(C)CCOc1cnc(COc2ccc(Cl)c(-c3cccc(OC(F)(F)F)c3)c2)c(F)c1 [Example 48] | 100 | 100 | – | – | 100 | – | – | 100 | – | – | – | – | – | – | 90 | 100 | 100 | – | 100 | –
CCOc1cc(OCc2ncc(OCCN(C)OC)cc2F)ccc1Cl [Example 54] | 100 | 100 | – | – | 100 | – | – | 100 | – | – | – | – | – | – | – | 100 | 100 | 100 | 100 | –
CON(C)CCOc1cnc(COc2ccc(F)c(-c3cccc(F)c3)c2)c(F)c1 [Example 55] | 100 | 100 | – | 90 | 100 | – | – | 100 | – | – | – | – | – | – | – | 83 | 100 | 90 | 100 | –
COc1cc(OCc2ncc(OCCN(C)OC)cc2F)ccc1Cl [Example 58] | – | – | – | – | – | – | – | 100 | – | – | – | – | – | – | – | 100 | 100 | 95 | 100 | –
COc1cc(OCc2ncc(OCCN(C)OC)cc2F)ccc1Br [Example 86] | 100 | 100 | – | – | – | – | – | – | – | – | – | – | – | – | – | – | 83 | 100 | 100 | –
CON(C)CCOc1cnc(COc2ccc(Cl)c3ccccc23)nc1 [Example 99, 2-[(2-{[(4-chloro-1-naphthyl)oxy]methyl}pyrimidin-5-yl)oxy]-N-methoxy-N-methylethanamine] | 100 | 100 | 100 | – | 100 | 100 | 100 | – | 80 to 100 | – | 80 to 100 | – | 80 to 100 | – | – | – | – | 100 | – | –

— US11827616B2, “Heterocyclic compounds as pesticides” (Discovery Purchaser Corporation, priority 2018, dated 2023)
